Values of other authors, collected in patent US8835447B2, “Method for treating androgen receptor positive cancers” (priority 2009, dated 2014).

Tested on: PSA levels
Details: Phase I clinical trial, castration resistant PCa; cited from earlier work

CNC(=O)c1ccc(N2C(=S)N(c3ccc(C#N)c(C(F)(F)F)c3)C(=O)C2(C)C)cc1F [MDV3100]
PSA levels in patients: demonstrated efficacy in decreasing PSA levels
